Tests used:
Format in all cases: cell-based, mouse
[1] = test system: bone marrow-derived dendritic cells; test: CD86 expression of LPS-stimulated bone marrow-derived dendritic cells, flow cytometry; conditions: 24 hours, LPS 1 μg/mL
Procedure: Compared to spleen dendritic cells, when bone marrow-derived DCs (BMDCs) were stimulated with LPS, effects of the peptide combination and the addition of fibronectin were measured.
Mouse bone marrow-derived dendritic cells were obtained by differentiation from mouse bone marrow precursor cells. The femur and tibia of female C57BL/6 mouse were removed, and bone marrow was isolated using 10 mL of EDTA:BSS (Balanced Salt Solution) buffer containing 2% FBS. Red blood cells were removed with erythrocyte lysis buffer (Sigma-Aldrich), washed with EDTA:BSS buffer, followed by filtering cells using a 70 μm cell strainer (Falcon). Cells at 3×10^6/mL were dispensed in a 6-well plate, and interleukin-4 (20 ng/ml) (JW Creagene, Korea) and GM-CSF (20 ng/ml) (JW Creagene) were added and cultured for 7 days to induce differentiation. Differentiated dendritic cells were reacted with microbeads bound with CD11c antibody (eBioscience), was separated using CD11c Microbeads Ultrapure (MACS, Milteni Biotec), and then cultured.
In FIG. 17, while culturing 2×10^5/mL of bone marrow-derived dendritic cells for 24 hours, the peptides of P1, P2 and P3 were each added at a concentration of 200 μg/mL or fibronectin was added at a concentration of 200 μg/mL. […]

[2] = test system: spleen dendritic cells; test: Distribution / clustering of cultured spleen dendritic cells by confocal microscope (DIC); conditions: 200 μg/mL added, dendritic cells 2×10^5/mL, cultured 6 hours
Procedure: Mouse spleen dendritic cells were obtained by adding EDTA-BSS (Balanced Salt Solution) buffer and collagenase solution (DMEM containing 100 units of collagenase type IV, medium containing low glucose) to spleens of female C57BL/6 mice and cutting it with surgical scissors, mixing the same with 6 mL of collagenase treatment solution, and incubating the mixture for 30 minutes. The separated whole spleen tissue was filtered using a 70 μm cell strainer (Falcon), followed by centrifugation at 1800 rpm for 5 minutes thus to separate the cells. Red blood cells were removed by adding red blood cell lysis buffer (Sigma-Aldrich) to the cells and washed twice with RPMI-1640 medium containing 10% fetal bovine serum (FBS). Dendritic cells were reacted with CD11c^+ antibody-bound microbeads and isolated using CD11c Microbeads Ultrapure ([…] Biotec, USA). In FIG. 1, primary dendritic cells isolated from the spleen were dispensed in a 48-well plate and cultured for 24 hours in a cell chamber maintained at 37° C. and 5% CO2, and the extent of clustering in which cells were distributed or gathered into single cells was evaluated. […] The number of single cells and intercellular clusters was measured using ImageJ software (NIH, Bethesda). * indicates statistical significance as P<0.05 or less compared with 0 h. […]

[3] = test system: spleen dendritic cells; test: Viability of spleen dendritic cells by 7-AAD staining; conditions: 6 hours of culture
Procedure: Dendritic cells are characterized by rapid cell death during culture while self-activation occurs. In addition to the inhibition of self-activation, it was measured whether the viability of dendritic cells is changed. Cell viability was determined by staining of culturing cells with 7-AAD and measuring the number of cells not stained with the above fluorescent substance.

[4] = test system: spleen T cells from Balb/c mice; test: Mixed lymphocyte reaction: proliferation of CFSE-stained allogeneic T cells co-cultured with spleen dendritic cells; conditions: dendritic cells cultured with the substance and activated with LPS or poly (I:C), co-culture 1:20, 4 days
Procedure: Since the main role of activated dendritic cells is to induce antigen-specific T-cell activation and proliferation according to the stimulatory properties, it was investigated whether self-activated dendrite cells after culturing and dendritic cells activated with LPS after culturing with addition of peptides can induce T cell proliferation by mixed lymphocyte reaction (MLR) test. The spleen dendritic cells isolated from C57B/L6 mice were self-activated for 24 hours, otherwise, when cultured with addition of peptides or fibronectin, the cells were treated with LPS and activated. Spleen T cells from Balb/c mice were isolated using a CD4^+/CD8^+ T cell isolation kit (Miltenyi Biotec, Bergisch-Gladbach, Germany) and MACS column (Miltenyi Biotec), followed by 10 μM CFSE staining (Molecular Probes; Thermo Fisher Scientific Inc., USA). The activated dendritic cells and CFSE-stained T cells were co-cultured at a ratio of 1:20 for 4 days, and the T cell proliferation level was measured as a percentage of cells with decreased CFSE. […] In FIG. 22, the amount of cytokines secreted after co-culture of spleen dendritic cells and T cells for 4 days was measured by ELISA method. […]

[5] = test system: spleen dendritic cells; test: CD86 expression of spleen dendritic cells after immunostimulant (LPS or poly (I:C)), flow cytometry
Procedure: In FIG. 14, the expression level of CD86 in spleen primary dendritic cells cultured for 24 hours was measured similarly to the expression level of CD86 increased when E. coli LPS as an activation-inducing agent was used for treatment at a concentration of 1 μg/mL. […] CD86 expression of spleen dendritic cells cultured with addition of fibronectin was not increased even when 1 μg/mL LPS was treated.
In FIG. 20, compared to LPS binding to Toll-like receptor-4 of immune cells and inflammatory cells including dendritic cells, when poly (I:C) (polyinosinic:polycytidylic acid), which is similar to double-stranded RNA in terms of structure and is known as an immunostimulant that binds to Toll-like receptor-3, was administered at a concentration of 50 μg/mL, the increase in the expression of CD86 in spleen dendritic cells was inhibited when cultured with addition of fibronectin.

fibronectin was tested, and the “CD86 expression by LPS” value ([1]; BMDC 2×10^5/mL, 200 μg/mL) was “did not occur”, the “concentration from which the increase in CD86 expression by LPS was inhibited” value ([1]; BMDC) was at least 50 µg/mL and the “cell aggregation (distribution of cells)” value [2] was “significantly reduced”. The “number of 7-AAD-negative surviving cells” value [3] was “significantly increased”, the “T cell proliferation (cells with decreased CFSE)” value [4] was “not inducing T cell proliferation” and the “expression of CD86 by LPS stimulation” value ([5]; cultured 24 hours with the substance, 1 μg/mL LPS) was “not increased”. For the same substance, the “increase in the expression of CD86 by poly (I:C)” value ([5]; poly (I:C) 50 μg/mL, 24 hours, peptides 200 μg/mL each) was “inhibited”.

Source: patent publication US20240207308A1, “METHOD FOR CULTURING DENDRITIC CELLS” (NANOFAENTECH CO., LTD., priority 2021, published 2024)
